Results as given in US10668094B2, “Selective inhibitors of Alpha2-containing isoforms of Na,K-ATPase and use thereof for reduction of intraocular pressure” (Yeda Research and Development Co. Ltd., priority 2015, dated 2020).
Values joined by “and” are separate entries in the source; they are usually repeats but may differ in a detail not shown here. Equal entries are not always repeated. Where two headings read alike, the source gives them in different places.

Assays:
[1] = test system: 4AP-induced IOP in rabbits; assay type: in vivo, rabbit; details: one drop topically prior to 4AP
[2] = target: human Na,K-ATPase α1β1FXYD1 (Homo sapiens (Human), UniProt P05023); assay type: biochemical
[3] = target: human Na,K-ATPase α2β1FXYD1 (Homo sapiens, UniProt P50993); assay type: biochemical
[4] = test system: human Na,K-ATPase α2β1FXYD1; assay type: biochemical
[5] = test system: tissues of the eye; test: Histological examination of eye tissues after topical application for one week; assay type: in vivo, rabbit; details: one drop of 1 mM daily for one week
Method: In order to assess whether topical application of DcB damaged the tissues of the eye including cornea, iris, lens, cilary body, retina, choroid and sclera, a histological examination was conducted after topical application, using one drop of 1 mM DcB daily for one week in one eye of each animal, with the other eye treated topically with one drop of PBS and serving as the control. Animals were sacrificed, eyes were removed, fixed in 10% neutral buffered formalin, processed routinely for histological examination, trimmed at 4 μm, and stained with hematoxylin and eosin.

[6] = target: human Na,K-ATPase α2β3FXYD1 (Homo sapiens (Human), UniProt P50993+P54709); test: biochemical; assay type: biochemical
[7] = test system: basal IOP in rabbits; test: Basal IOP in rabbits, topical administration; assay type: in vivo, rabbit
[8] = test system: Na,K-ATPase in bovine ciliary NPE cells; test: biochemical; details: 1 site model; read-out: Ki, nM ± SEM
[9] = target: Na,K-ATPase in bovine ciliary NPE cells (Bos taurus, UniProt A2VDL6); test: biochemical
[10] = target: Na,K-ATPase in bovine ciliary NPE cells (Bos taurus, UniProt Q08DA1); test: biochemical
[11] = target: human Na,K-ATPase α2β2FXYD1 (Homo sapiens (Human), UniProt P50993); assay type: biochemical

Structure (SMILES): CC1CN(C2CCC2)CCC(O[C@@H]2[C@H](C)O[C@@H](O[C@@H]3[C@H](C)O[C@@H](O[C@H]4CC[C@@]5(C)C(CCC6C5C[C@H](O)[C@]5(C)[C@@H](C7=CC(=O)OC7)CC[C@]65O)C4)C[C@@H]3O)C[C@@H]2O)O1 (some centres unmarked) [DcB]
- concentration that prevents the 4AP-induced rise in IOP [1]: 0.01 mM
- Ki for α1β1 lower than for digoxin [2]: 2-3 fold
- Ki ([2]; read-out: Ki in nM ± SEM α1β1): 135 ± 11 nM
- Ki ([2]; read-out: Ki of α1β1FXYD1): 135 ± 11 nM
- Ki ([3]; read-out: Ki in nM ± SEM α2β1): 8 ± 1.25 nM
- Ki ([3]; read-out: Ki of α2β1FXYD1): 8 ± 1.25 nM
- Selectivity Ki ratio α1β1/α2β1 [4]: 16.9
- histological differences between treated and untreated eyes [5]: No significant histological differences were observed
- Ki for α2β3 lower than for digoxin [6]: about 10 fold
- Selectivity Ki ratio α1β1/α2β3 [6]: 33.6
- selectivity for α2β3 over α1β1 (Ki α1β1:α2β3 ratio) [6]: 33 fold
- Ki ([6]; read-out: Ki in nM ± SEM α2β3): ~4 nM and 4 nM
- time after which IOP returned to the control value ([7]; 1 mM DcB, 0.005% Latanoprost): 12 h
- effect on basal IOP at higher concentration ([7]; 2 mM): reduces the IOP similarly to 1 mM DcB
- steady-state IOP as % of the unchanged control values ([7]; after 3-8 hours): 75-80%
- steady-state IOP lower than basal IOP ([7]; after 3-8 hours, basal IOP 17-18 mmHg, 1 mM DcB, 0.005% Latanoprost): 3.5±0.15 mmHg
- effect on lowering basal IOP ([7]; one drop of 1 mM solution, other eye PBS): notable effect
- reduction of basal IOP ([7]; rabbit with a basal IOP of 17 mm Hg): about 4 mm Hg
- more effective than Latanoprost in reducing basal IOP ([7]; relative to Latanoprost): about 25%
- reduction of basal IOP ([7]; topical, test period of 4-5 hours): 20-25%
- Ki [8]: 17.3 ± 2.5 nM
- Ki [9]: 6.9 ± 2 nM
- Ki ([9]; read-out: Ki α2, 2 sites model): 6.9 nM
- Ki [10]: 151 ± 7.6 nM
- Selectivity Ki ratio α1β1/α2β2 [11]: 22.2
- Ki ([11]; read-out: Ki in nM ± SEM α2β2): 6 ± 1 nM
